Experimental data reported in patent US6642267B2, “Substituted 1,5-dihydropyrrol-2-one derivatives active as NMDA receptor antagonists for treatment of states of pain” (Gruenenthal GmbH, priority 1999, dated 2003).

What was measured:
[1] = system: formalin-induced nociceptive reaction (licking and biting of the paw); experiment: Formalin test in mice, second (late) phase; assay type: in vivo; conditions: male NMRI mice
Method: The studies for determination of the antinociceptive action of substituted 1,5-dihydropyrrol-2-one derivatives according to the invention were carried out in the formalin test in male albino mice (NMRI, 25-35 g, Iffa Credo, Belgium).
In the formalin test, a distinction is made between the first (early) phase (0-15 min after formalin injection) and the second (late) phase (15-60 min after formalin injection) (D. Dubuisson et al, Pain 4, 161-174 (1977)). The early phase represents a model for acute pain, as a direct reaction to the formalin injection, while the late phase is regarded as a model for persistent (chronic) pain (T. J. Coderre et al, Pain, vol. 52, pp. 259-285 (1993).
The compounds according to the invention were investigated in the second phase of the formalin test to obtain information on substance actions on chronic/inflammatory pain.
By a single subcutaneous formalin injection (20 μl, 1% aqueous solution) into the dorsal side of the right hind paw of freely mobile test animals, a nociceptive reaction was induced, which manifests itself in significant licking and biting of the paw affected.
For the investigation period in the second (late) phase of the formalin test, the nociceptive behaviour was recorded continuously by observing the animals. […] After injection of substances which have an antinociceptive action in the formalin test, the modes of behaviour described for the animals are reduced, and possibly even eliminated.
In a manner corresponding to the substance tests, in which the animals received an injection of the test substance before formalin, the vehicle, i.e. solvent (e.g. 0.9% NaCl solution), was injected into the control animals before the administration of formalin. The behaviour of the animals after administration of the substance (10 mice per substance dosage) was compared with a control group (10 mice).
On the basis of the quantification of the pain properties, the action of the substance in the formalin test was determined as a change from the control in per cent. The ED50 calculations were made by means of regression analysis. […]

[2] = target: T1, glycine-binding site of the NMDA receptor channel (Rattus norvegicus, UniProt P35439); experiment: Receptor binding study, displacement of (3H)-MDL 105.519 in rat brain membrane homogenates; conditions: rat cortex and hippocampus membrane homogenate; (3H)-MDL 105.519 radioligand; Ki from IC50 by Cheng-Prusoff
T1 construct: from tissue; host or cells: rat brain cortex and hippocampus membrane homogenate (male Wistar rats, Charles River)
Method: The studies for determination of the affinity of the substituted 1,5-dihydropyrrol-2-one derivatives of the general formula I for the glycine-binding site of the NMDA receptor channel were carried out on brain membrane homogenates (homogenate of the cortex and hippocampus area from the brain of male rats, Wistar strain, Charles River, WIGA GmbH, Sulzbach, Germany) by the method of Baron B. M. et al, J. Pharmacol. Exp. Ter., vol. 279, pp. 62-68 (1996).
Specifically, the cortex and hippocampus were exposed from freshly removed rat brains and homogenized in 5 mmol/l TRIS-acetate buffer, 0.32 mol/l sucrose pH 7.4 (10 ml/g fresh weight) with a Potter homogenizer (Braun, Melsungen, Germany, 10 plunger strokes at 500 revolutions per minute (rpm)), while cooling with ice, and the mixture was then centrifuged for 10 minutes at 1,000 g and 4° C. The first supernatant was collected and the sediment was homogenized again with 5 mmol/l TRIS-acetate buffer, 0.32 mol/l sucrose pH 7.4 (5 ml/g of original fresh weight of rat brain cortex and hippocampus) with the Potter homogenizer (10 plunger strokes at 500 rpm), while cooling with ice, and the mixture was centrifuged for 10 minutes at 1,000 g and 4° C. The resulting supernatant was combined with the supernatant from the first centrifugation and the mixture was centrifuged at 17,000 g for 20 minutes at 4° C. The supernatant after this centrifugation was discarded and the membrane sediment was taken up in 5 mmol/l TRIS-acetate buffer pH 8.0 (20 ml/g original fresh weight) and the mixture was homogenized with 10 plunger strokes at 500 rpm.
The membrane homogenate was then incubated for 1 hour at 4° C. and centrifuged for 30 minutes at 50,000 g and 4° C. The supernatant was discarded and the centrifuge tube with the membrane sediment was closed with Parafilm and frozen for 24 hours at −20° C. On the following day the membrane sediment was thawed and taken up in ice-cold 5 mmol/l TRIS-acetate buffer, 0.1% saponin (weight/volume) pH 7.0 (10 ml/g original fresh weight) and the mixture was homogenized with 10 plunger strokes at 500 rpm and then centrifuged for 20 minutes at 50,000 g and 4° C. The resulting supernatant was discarded and the sediment was taken up in a small volume of 5 mmol/l TRIS-acetate buffer pH 7.0 (approx. 2 ml/g original fresh weight) and the mixture was homogenized again with 10 plunger strokes at 500 rpm. After the protein content had been determined, the membrane homogenate was adjusted to a protein concentration of 10 mg protein/ml with 5 mmol/l TRIS-acetate buffer pH 7.0 and frozen in aliquots until the analysis was carried out.
For the receptor binding test, aliquots were thawed, diluted 1:10 with 5 mmol/l TRIS-acetate buffer pH 7.0 and homogenized with the Potter homogenizer with 10 plunger strokes at 500 rpm, while cooling with ice, and the mixture was centrifuged for 60 minutes at 55,000 g at 4° C. The supernatant was decanted and the membrane sediment was adjusted to a protein concentration of 1 mg/ml with ice-cold 50 mmol/l TRIS-acetate buffer pH 7.0 and the mixture was homogenized again with 10 plunger strokes at 500 rpm and kept in suspension while stirring on a magnetic stirrer in an ice-bath. In each case 100 μl of this membrane homogenate per 1 ml batch were employed in the receptor binding test (0.1 mg protein/ml in the final batch).
In the binding test, 50 mmol/l TRIS-acetate buffer pH 7.0 were employed as the buffer and […] (^3H)-MDL 105.519 (Baron B. M. at al, J. Pharmacol. Exp. Ther., vol 279, pp. 62-68 (1996)) was employed as the radioactive ligand. The content of non-specific binding was determined in the presence of 1 mmol/l glycine.
In further batches, the compounds according to the invention were added in concentration series and the displacement of the radioactive ligand from its specific binding to the glycine binding site of the NMDA receptor channel was determined. […]

Row | SMILES | % change with respect to the control at 10 mg/kg [1] | Ki [2] | melting point
1 | O=NC1=C(O)C(=Cc2ccccc2)NC1=O [Example 1, 5-Benzylidene-4-hydroxy-3-nitroso-1,5-dihydro-pyrrol-2-one] | 63.9% |  | 
2 | COC1=C(N=O)C(=O)NC1=Cc1ccccc1 [Example 2, 5-Benzylidene-4-methoxy-3-nitroso-1,5-dihydropyrrol-2-one] | 36.3% |  | 
3 | O=NC1=C(NCc2ccccc2)C(=Cc2ccccc2)NC1=O [Example 3, 4-Benzylamino-5-benzylidene-3-nitroso-1,5-dihydropyrrol-2-one] | 47.6% | 68 µM | 
4 | O=NC1=C(Nc2ccccc2)C(=Cc2ccccc2)NC1=O [Example 4, 5-Benzylidene-3-nitroso-4-phenylamino-1,5-dihydropyrrol-2-one] |  | 72 µM | 
5 | CNC1=C(N=O)C(=O)NC1=Cc1ccccc1 [Example 5, 5-Benzylidene-4-methylamino-3-nitroso-1,5-dihydropyrrol-2-one] |  | 60 µM | 
6 | NC1=C(N=O)C(=O)NC1=Cc1ccccc1 [Example 6, 4-Amino-5-benzylidene-3-nitroso-1,5-dihydropyrrol-2-one] |  | 70 µM | 
7 | O=C1NC(=Cc2ccccc2)C(Nc2ccccc2)=C1[N+](=O)[O-] [Example 8, 5-Benzylidene-3-nitro-4-phenylamino-1,5-dihydropyrrol-2-one] |  | 9 µM | 
8 | O=C1NC(=Cc2ccccc2)C(NCc2ccccc2)=C1[N+](=O)[O-] [Example 9, 4-Benzylamino-5-benzylidene-3-nitro-1,5-dihydropyrrol-2-one] |  | 5 µM | 218 °C
9 | CNC1=C([N+](=O)[O-])C(=O)NC1=Cc1ccccc1 [Example 10, 5-Benzylidene-4-methylamino-3-nitro-1,5-dihydropyrrol-2-one] |  | 3 µM | 238 °C
10 | NC1=C([N+](=O)[O-])C(=O)NC1=Cc1ccccc1 [Example 11, 4-Amino-5-benzylidene-3-nitro-1,5-dihydropyrrol-2-one] |  | 6 µM | > 260 °C
